Test results published in patent US12076307B2, “Compositions for prevention or treatment of acute radiation syndrome and other radiation exposure” (priority 2017, dated 2024).

Legend:
Sprague Dawley rats = test: Respiratory function in rats; assay type: in vivo, rat; details: single oral doses up to 2000 mg/kg
Procedure: EC-18 was orally administered to Sprague Dawley rats (n=6 males/group) at single doses of 0, 500, 1000 and 2000 mg/kg. Tidal volume, respiration rate per minute and minute volume were measured with whole-body plethysmograph at 0 (pre-dose), 1, 2 and 4-hr post-dose.

EGFR = test: Western blot of EGFR activity, comparison to G-CSF; assay type: cell-based; details: cells stimulated with neutrophil or G-CSF-activated neutrophils
Procedure: The effects of EC-18 in comparison to G-CSF to cells after γ-radiation were measured by western blot (FIG. 25). The experiment can i) show correlation between EGFR activity and the abnormal growth and metastasis induction of breast cancer cells in the TAN environment and ii) confirm inhibitory effect mechanism by PLAG treatment in this condition. In fact, it was confirmed that EGFR activity was increased in the groups stimulated with neutrophil or G-CSF-activated neutrophils, however, the activity of EGFR (Phosphorylation of EGFR) was decreased in the group treated with PLAG. FIG. 26 can show effects of PLAG in comparison to G-CSF.

Sprague-Dawley rats = test: Central nervous system of rats (FOB); assay type: in vivo, rat; details: doses up to 2000 mg/kg; to 24 hrs
Procedure: Sprague-Dawley rats (n=8 males/group) received control material (olive oil) or EC-18 at 500, 1000, and 2000 mg/kg. The functional observational battery test, which included observations inside the cage, in open space, and while holding in the hands, along with sensory-motor function, and body temperature measurements were performed before EC-18 administration and 0.5, 1, 3, 6, and 24 hrs after control or EC-18 administration.

Beagle dog = test: Repeated dose toxicity, Beagle dog; assay type: in vivo; details: Oral
Excerpt: (§1) Various toxicology studies have been performed. All studies were GLP-compliant unless otherwise noted.

[1] = Repeated dose toxicity, Beagle dog; assay type: in vivo; details: Beagle, dog, in vivo, Oral
Excerpt: as §1

[2] = Whole blood and lymphatic radioactivity in rats after single oral [14C]EC-18 100 mg/kg; assay type: in vivo, rat; details: 100 mg/kg oral; for Tmax: n=3, 100 mg/kg
Procedure: Male SD rats in fasted condition were administered a single dose of [^14C]EC-18 (oral dose of 100 mg/kg; vehicle: olive oil), and the radioactive concentration of the EC-18 was measured in whole blood samples at 0.5, 1, 2, 3, 4, 6, and 8 hrs after its administration. In parallel, male rats with a cannula inserted into the intestinal tract were administered a single dose of [^14C]EC-18 (oral dose of 100 mg/kg; vehicle: olive oil) and the concentration of EC-18-related radioactivity was measured in lymphatic fluid collected in conscious rats at 0.5, 1, 2, 3, 4, 6, and 8 hrs after its administration (FIG. 60). Then, the values of PK parameters were calculated using the quantitative data from whole blood and lymphatic fluid samples (Table 20). Following a single oral administration of [14C]EC-18, EC-18 concentration in the lymphatic fluid of rats was 10 to 53 times higher than that in whole blood (FIG. 60).

[3] = Plasma and lymphatic concentrations of EC-18 in beagle dogs after single administration; assay type: in vivo, dog; details: for Tmax / AUC(0-t) / half-life / Cmax: male, beagle, dog; for Tmax: po
Procedure: A single dose of EC-18 (1000, 2000, 4000 mg/kg by mouth or 100 mg/kg IV) was administered to male beagle dogs in fed condition and the concentration of EC-18 in plasma and lymph was measured using UHPLC-MS/MS.

[4] = Whole-body autoradiography of rats after single oral [14C]EC-18; assay type: in vivo, rat; details: 200 mg/kg oral
Procedure: Male albino rats in fasted conditions were administered a single dose of [^14C]EC-18 (oral dose of 200 mg/kg, vehicle: olive oil). The distribution and levels of radioactivity in the body were observed by whole-body autoradiography performed at 0.25, 1, 8, and 24 hrs after [^14C]EC-18 administration.

SD rat = test: Immunotoxicity study (splenic blastogenesis response test); assay type: in vivo; details: Oral; 4 weeks
Excerpt: as §1

CYP3A4 = CYP3A4 (Homo sapiens, UniProt P08684); test: CYP enzyme inhibition in human liver microsomes, CYP3A4
Excerpt: CYP1A2, CYP2C9, CYP2C19, CYP2D6, and CYP3A4 are the CYP subfamily, which plays a critical role in the metabolism of most drugs.

[5] = Plasma protein binding by rapid equilibrium dialysis, rat; details: Rats, 4 hrs RED, n=3
Procedure: The plasma protein binding ability of EC-18 was tested by rapid equilibrium dialysis (RED). The chamber separated by a dialysis tubing membrane (cut-off: 8 kDa) was filled on one side with rat or human plasma mixed with phosphate buffer and on the other side with rat or human plasma mixed with the test or standard reference material (test concentration: 1 μM).

Chain of CYP3A4 (P08684 whole entry): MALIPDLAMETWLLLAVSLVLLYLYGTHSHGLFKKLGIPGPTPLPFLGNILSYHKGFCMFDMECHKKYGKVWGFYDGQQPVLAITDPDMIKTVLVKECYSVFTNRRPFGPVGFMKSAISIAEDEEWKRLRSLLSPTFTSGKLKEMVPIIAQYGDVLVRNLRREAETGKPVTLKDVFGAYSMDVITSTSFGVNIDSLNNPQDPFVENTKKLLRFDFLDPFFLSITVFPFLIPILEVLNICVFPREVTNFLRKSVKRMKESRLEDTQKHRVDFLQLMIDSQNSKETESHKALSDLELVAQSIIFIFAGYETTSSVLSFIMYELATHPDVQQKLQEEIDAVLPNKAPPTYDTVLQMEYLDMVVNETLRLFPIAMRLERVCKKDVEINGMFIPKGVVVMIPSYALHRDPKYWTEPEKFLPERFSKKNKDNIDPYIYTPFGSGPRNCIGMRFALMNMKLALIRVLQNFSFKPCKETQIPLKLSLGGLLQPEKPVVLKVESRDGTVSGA

SMILES: CCCCC/C=C\C/C=C\CCCCCCCC(=O)OC(COC(C)=O)COC(=O)CCCCCCCCCCCCCCC (stereo not drawn) [EC-18, 1-palmitoyl-2-linoleoyl-3-acetylglycerol]
- respiratory function (Sprague Dawley rats): did affect the respiratory function
- activity of EGFR (Phosphorylation of EGFR) (EGFR): decreased
- CNS (functional observational battery) (Sprague-Dawley rats): did not affect the CNS
- mortality (Beagle dog; 2 weeks, 0, 500, 1000, 2000 mg/kg): No dead animals
- findings (Beagle dog; 2 weeks, males and females in 1000 and 2000 mg/kg dose groups): Grayish stool observed
- mortality (Beagle dog; 4 weeks (2-week recovery)): No dead animals
- findings (Beagle dog; 4 weeks (2-week recovery), drug administration groups): Grayish stool observed
- findings (soft stool and grayish stool; early diarrhea; no toxicological significance) (Beagle dog; 9 months (4-week recovery)): Dose-dependent soft
- mortality (Beagle dog; 9 months (4-week recovery)): No dead animals
- findings (grayish stool observed) (Beagle dog; 13 weeks (4-week recovery)): Dose-dependent grayish
- mortality (Beagle dog; 13 weeks (4-week recovery)): No dead animals
- NOAEL at 2 weeks ([1]; 2 weeks): > 2000 mg/kg/day
- NOAEL at 4 weeks ([1]; 4 weeks (2-week recovery)): > 2000 mg/kg/day
- NOAEL at 9 months ([1]; 9 months (4-week recovery)): 2000 mg/kg/day
- NOAEL at 13 weeks ([1]; 13 weeks (4-week recovery)): > 2000 mg/kg/day
- AUC0-last in lymphatic fluid relative to whole blood [2]: 41 times
- Cmax in lymphatic fluid relative to whole blood [2]: 31 times
- Tmax ([2]; Lymphatic Fluid): 7.0 h
- Tmax ([2]; Whole Blood, fasted): 3.8 h
- F ([3]; 1000 mg/kg po, Plasma): 7.8%
- F ([3]; 2000 mg/kg po, Plasma): 6.3%
- F ([3]; 4000 mg/kg po, Plasma): 23.6%
- Tmax ([3]; lymph, 1000 mg/kg, 1000 mg/kg po, Lymph, read-out: Tmax): 3.3 ± 0.9 h
- Tmax ([3]; lymph, 1000 mg/kg, 1000 mg/kg po, lymph, read-out: median Tmax): 4 h
- Tmax ([3]; lymph, 2000 mg/kg, 2000 mg/kg po, Lymph, read-out: Tmax): 3.3 ± 0.9 h
- Tmax ([3]; lymph, 2000 mg/kg, 2000 mg/kg po, lymph, read-out: median Tmax): 4 h
- Tmax ([3]; lymph, 4000 mg/kg, 4000 mg/kg po, Lymph, read-out: Tmax): 3.3 ± 1.9 h
- Tmax ([3]; lymph, 4000 mg/kg, 4000 mg/kg po, lymph, read-out: median Tmax): 2 h
- Tmax ([3]; plasma, 1000 mg/kg, 1000 mg/kg po, Plasma, read-out: Tmax): 1.3 h
- Tmax ([3]; plasma, 2000 mg/kg, 2000 mg/kg po, Plasma, read-out: Tmax): 1.3 h
- Tmax ([3]; plasma, 4000 mg/kg, 4000 mg/kg po, Plasma, read-out: Tmax): 6.7 h
- AUC(0-t) ([3]; 100 mg/kg IV, Plasma): 7540 ± 1860 ng·h/mL
- half-life ([3]; 100 mg/kg IV, Plasma): 13.9 ± 2.3 h
- AUC(0-t) ([3]; 1000 mg/kg po, Lymph): 118000 ± 16700 ng·h/mL
- Cmax ([3]; 1000 mg/kg po, Lymph): 35100 ± 5160 ng/mL
- AUC(0-t) ([3]; 1000 mg/kg po, Plasma): 5800 ± 2810 ng·h/mL
- Cmax ([3]; 1000 mg/kg po, Plasma): 1750 ± 710 ng/mL
- AUC(0-t) ([3]; 2000 mg/kg po, Lymph): 389000 ± 125000 ng·h/mL
- Cmax ([3]; 2000 mg/kg po, Lymph): 40100 ± 8620 ng/mL
- AUC(0-t) ([3]; 2000 mg/kg po, Plasma): 9490 ± 3850 ng·h/mL
- Cmax ([3]; 2000 mg/kg po, Plasma): 2110 ± 750 ng/mL
- AUC(0-t) ([3]; 4000 mg/kg po, Lymph): 431000 ± 81300 ng·h/mL
- Cmax ([3]; 4000 mg/kg po, Lymph): 46600 ± 1730 ng/mL
- half-life ([3]; 4000 mg/kg po, Lymph): 3.3 ± 0.2 h
- AUC(0-t) ([3]; 4000 mg/kg po, Plasma): 71100 ± 31700 ng·h/mL
- Cmax ([3]; 4000 mg/kg po, Plasma): 6760 ± 3330 ng/mL
- time to elimination [4]: ≤ 24 h
- T and B lymphocyte proliferation (SD rat): No changes in T and B
- IC50 (CYP3A4): 26.8 µM
- Plasma Protein Binding Rate ([5]; 1 μM): 98.8 ± 0.5%
- fraction unbound at 4 hrs, 1 μM ([5]; rat, plasma, Plasma Protein Binding Rate): < 0.01
